Assay results as given in US20250042875A1, “PESTICIDALLY ACTIVE PYRIDAZINONE COMPOUNDS” (SYNGENTA CROP PROTECTION AG, priority 2021, published 2025).

How the values were obtained:
Type in all cases: in vivo
Spodoptera littoralis = experiment: Activity against Spodoptera littoralis (Egyptian cotton leaf worm), cotton leaf discs, L1 larvae; conditions: foliar, 72 h, application rate 200 ppm, 3 days after infestation, read-out: control in at least one of the three categories (mortality, anti-feedant effect, or growth inhibition)
Method: Example B8: Activity Against Spodoptera littoralis (Egyptian Cotton Leaf Worm)
Cotton leaf discs were placed onto agar in 24-well microtiter plates and sprayed with aqueous test solutions prepared from 10′000 ppm DMSO stock solutions. After drying the leaf discs were infested with five L1 larvae. The samples were assessed for mortality, anti-feeding effect, and growth inhibition in comparison to untreated samples 3 days after infestation. Control of Spodoptera littoralis by a test sample is given when at least one of the categories mortality, anti-feedant effect, and growth inhibition is higher than the untreated sample.

Euschistus heros = experiment: Activity against Euschistus heros (neotropical brown stink bug), soybean leaves, N2 nymphs; conditions: 120 h, application rate 200 ppm, 5 days after infestation, read-out: effect in at least one of the two categories (mortality or growth inhibition)
Method: Example B3: Activity Against Euschistus heros (Neotropical Brown Stink Bug)
Soybean leaves on agar in 24-well microtiter plates were sprayed with aqueous test solutions prepared from 10′000 ppm DMSO stock solutions. After drying the leaves were infested with N2 nymphs. The samples were assessed for mortality and growth inhibition in comparison to untreated samples 5 days after infestation.

Myzus persicae [1] = experiment: Activity against Myzus persicae (green peach aphid), feeding/contact activity; conditions: 144 h, application rate 200 ppm, 6 days after infestation
Method: Example B5: Activity Against Myzus persicae (Green Peach Aphid). Feeding/Contact Activity
Sunflower leaf discs were placed onto agar in a 24-well microtiter plate and sprayed with aqueous test solutions prepared from 10′000 ppm DMSO stock solutions. After drying, the leaf discs were infested with an aphid population of mixed ages. The samples were assessed for mortality 6 days after infestation.

Diabrotica balteata = experiment: Activity against Diabrotica balteata (corn root worm), maize sprouts, L2 larvae; conditions: 96 h, application rate 200 ppm, 4 days after infestation, read-out: control in at least one of the two categories (mortality or growth inhibition)
Method: Example B2: Activity Against Diabrotica Balteata (Corn Root Worm)
Maize sprouts placed onto an agar layer in 24-well microtiter plates were treated with aqueous test solutions prepared from 10′000 ppm DMSO stock solutions by spraying. After drying, the plates were infested with L2 larvae (6 to 10 per well). The samples were assessed for mortality and growth inhibition in comparison to untreated samples 4 days after infestation.

Plutella xylostella = experiment: Activity against Plutella xylostella (diamond back moth), artificial diet, eggs; conditions: 192 h, application rate 200 ppm, 8 days after infestation, read-out: control in at least one of the two categories (mortality or growth inhibition)
Method: Example B7: Activity Against Plutella xylostella (Diamond Back Moth)
24-well microtiter plates with artificial diet were treated with aqueous test solutions prepared from 10′000 ppm DMSO stock solutions by pipetting. After drying, Plutella eggs were pipetted through a plastic stencil onto a gel blotting paper and the plate was closed with it. The samples were assessed for mortality and growth inhibition in comparison to untreated samples 8 days after infestation.

Chilo suppressalis = experiment: Activity against Chilo suppressalis (striped rice stemborer), artificial diet, L2 larvae; conditions: 144 h, application rate 200 ppm, 6 days after infestation, read-out: control in at least one of the three categories (mortality, anti-feedant effect, or growth inhibition)
Method: Example B1: Activity Against Chilo suppressalis (Striped Rice Stemborer)
24-well microtiter plates with artificial diet were treated with aqueous test solutions prepared from 10′000 ppm DMSO stock solutions by pipetting. After drying, the plates were infested with L2 larvae (6-8 per well). The samples were assessed for mortality, anti-feeding effect, and growth inhibition in comparison to untreated samples 6 days after infestation. Control of Chilo suppressalis by a test sample is given when at least one of the categories mortality, anti-feedant effect, and growth inhibition is higher than the untreated sample.

Myzus persicae [2] = experiment: Activity against Myzus persicae (green peach aphid), intrinsic activity; conditions: 120 h, test rate 12 ppm, 5 days after infestation
From the text: Example B6: Activity Against Myzus persicae (Green Peach Aphid). Intrinsic Activity
Test compounds prepared from 10′000 ppm DMSO stock solutions were applied by pipette into 24-well microtiter plates and mixed with sucrose solution. The plates were closed with a stretched Parafilm. A plastic stencil with 24 holes was placed onto the plate and infested pea seedlings were placed directly on the Parafilm. The infested plate was closed with a gel blotting paper and another plastic stencil and then turned upside down. The samples were assessed for mortality 5 days after infestation.

C[C@H](NC(=O)c1cc(Br)cc(OC(F)(F)F)c1)c1ncnn1-c1ccc(=O)n(C)n1 [P40, 3-bromo-N-[(1S)-1-[2-(1-methyl-6-oxo-pyridazin-3-yl)-1,2,4-triazol-3-yl]ethyl]-5-(trifluoromethoxy)benzamide]
≥ 80%: percent control (mortality, anti-feedant effect or growth inhibition) at 200 ppm (Spodoptera littoralis) | percent effect (mortality or growth inhibition) at 200 ppm (Euschistus heros) | mortality at 200 ppm (Myzus persicae [1]) | percent control (mortality or growth inhibition) at 200 ppm (Diabrotica balteata) | percent control (mortality or growth inhibition) at 200 ppm (Plutella xylostella) | percent control (mortality, anti-feedant effect or growth inhibition) at 200 ppm (Chilo suppressalis) | mortality at 12 ppm (Myzus persicae [2])

C[C@@H](c1ncnn1C1=NN(C)C(=O)CC1)N(C)C(=O)c1cc(Cl)cc(C(F)(F)F)c1 [P23, 3-chloro-N-methyl-N-[(1S)-1-[2-(1-methyl-6-oxo-4,5-dihydropyridazin-3-yl)-1,2,4-triazol-3-yl]ethyl]-5-(trifluoromethyl)benzamide]
≥ 80%: percent control (mortality, anti-feedant effect or growth inhibition) at 200 ppm (Spodoptera littoralis) | percent effect (mortality or growth inhibition) at 200 ppm (Euschistus heros) | mortality at 200 ppm (Myzus persicae [1]) | percent control (mortality or growth inhibition) at 200 ppm (Diabrotica balteata) | percent control (mortality or growth inhibition) at 200 ppm (Plutella xylostella) | percent control (mortality, anti-feedant effect or growth inhibition) at 200 ppm (Chilo suppressalis) | mortality at 12 ppm (Myzus persicae [2])

CCn1nc(-n2ncnc2[C@H](C)NC(=O)c2cc(Cl)cc(C(F)(F)F)c2)ccc1=O [P16, 3-chloro-N-[(1S)-1-[2-(1-ethyl-6-oxo-pyridazin-3-yl)-1,2,4-triazol-3-yl]ethy]-5-(trifluoromethyl)benzamide]
≥ 80%: percent control (mortality, anti-feedant effect or growth inhibition) at 200 ppm (Spodoptera littoralis) | percent effect (mortality or growth inhibition) at 200 ppm (Euschistus heros) | mortality at 200 ppm (Myzus persicae [1]) | percent control (mortality or growth inhibition) at 200 ppm (Diabrotica balteata) | percent control (mortality or growth inhibition) at 200 ppm (Plutella xylostella) | percent control (mortality, anti-feedant effect or growth inhibition) at 200 ppm (Chilo suppressalis) | mortality at 12 ppm (Myzus persicae [2])

C[C@H](NC(=O)c1cc(Cl)cc(S(=O)(=O)C(F)(F)F)c1)c1ncnn1-c1ccc(=O)n(C)n1 [P20, 3-chloro-N-[(1S)-1-[2-(1-methyl-6-oxo-pyridazin-3-yl)-1,2,4-triazol-3-yl]ethyl]-5-(trifluoromethylsulfonyl) benzamide]
≥ 80%: percent control (mortality, anti-feedant effect or growth inhibition) at 200 ppm (Spodoptera littoralis) | percent effect (mortality or growth inhibition) at 200 ppm (Euschistus heros) | mortality at 200 ppm (Myzus persicae [1]) | percent control (mortality or growth inhibition) at 200 ppm (Diabrotica balteata) | percent control (mortality or growth inhibition) at 200 ppm (Plutella xylostella) | percent control (mortality, anti-feedant effect or growth inhibition) at 200 ppm (Chilo suppressalis) | mortality at 12 ppm (Myzus persicae [2])

C[C@H](NC(=O)c1cc(Cl)cc(OC(F)(F)F)c1)c1ncnn1-c1ccc(=O)n(C)n1 [P26, 3-chloro-N-[(1S)-1-[2-(1-methyl-6-oxo-pyridazin-3-yl)-1,2,4-triazol-3-yl]ethyl]-5-(trifluoromethoxy)benzamide]
≥ 80%: percent control (mortality, anti-feedant effect or growth inhibition) at 200 ppm (Spodoptera littoralis) | percent effect (mortality or growth inhibition) at 200 ppm (Euschistus heros) | mortality at 200 ppm (Myzus persicae [1]) | percent control (mortality or growth inhibition) at 200 ppm (Diabrotica balteata) | percent control (mortality or growth inhibition) at 200 ppm (Plutella xylostella) | percent control (mortality, anti-feedant effect or growth inhibition) at 200 ppm (Chilo suppressalis) | mortality at 12 ppm (Myzus persicae [2])

C[C@H](NC(=O)c1cc(Cl)cc(I)c1)c1ncnn1-c1ccc(=O)n(C)n1 [P28, 3-chloro-5-iodo-N-[(1S)-1-[2-(1-methyl-6-oxo-pyridazin-3-yl)-1,2,4-triazol-3-yl]ethyl]benzamide]
≥ 80%: percent control (mortality, anti-feedant effect or growth inhibition) at 200 ppm (Spodoptera littoralis) | percent effect (mortality or growth inhibition) at 200 ppm (Euschistus heros) | mortality at 200 ppm (Myzus persicae [1]) | percent control (mortality or growth inhibition) at 200 ppm (Diabrotica balteata) | percent control (mortality or growth inhibition) at 200 ppm (Plutella xylostella) | percent control (mortality, anti-feedant effect or growth inhibition) at 200 ppm (Chilo suppressalis) | mortality at 12 ppm (Myzus persicae [2])

C[C@H](NC(=O)c1cc(Br)cc(Br)c1)c1ncnn1-c1ccc(=O)n(C)n1 [P29, 3,5-dibromo-N-[(1S)-1-[2-(1-methyl-6-oxo-pyridazin-3-yl)-1,2,4-triazol-3-yl]ethyl]benzamide]
≥ 80%: percent control (mortality, anti-feedant effect or growth inhibition) at 200 ppm (Spodoptera littoralis) | percent effect (mortality or growth inhibition) at 200 ppm (Euschistus heros) | mortality at 200 ppm (Myzus persicae [1]) | percent control (mortality or growth inhibition) at 200 ppm (Diabrotica balteata) | percent control (mortality or growth inhibition) at 200 ppm (Plutella xylostella) | percent control (mortality, anti-feedant effect or growth inhibition) at 200 ppm (Chilo suppressalis) | mortality at 12 ppm (Myzus persicae [2])

C[C@H](NC(=O)c1cc(C(F)(F)F)cc(C(F)(F)F)c1)c1ncnn1-c1ccc(=O)n(C)n1 [P1, N-[(1S)-1-[2-(1-methyl-6-oxo-pyridazin-3-yl)-1,2,4-triazol-3-yl]ethyl]-3,5-bis(trifluoromethyl)benzamide]
≥ 80%: percent control (mortality, anti-feedant effect or growth inhibition) at 200 ppm (Spodoptera littoralis) | percent effect (mortality or growth inhibition) at 200 ppm (Euschistus heros) | mortality at 200 ppm (Myzus persicae [1]) | percent control (mortality or growth inhibition) at 200 ppm (Diabrotica balteata) | percent control (mortality or growth inhibition) at 200 ppm (Plutella xylostella) | percent control (mortality, anti-feedant effect or growth inhibition) at 200 ppm (Chilo suppressalis) | mortality at 12 ppm (Myzus persicae [2])

C[C@H](NC(=O)c1cc(C(F)(F)F)nc(C2(C#N)CC2)c1)c1ncnn1-c1ccc(=O)n(C)n1 [P33, 2-(1-cyanocyclopropyl)-N-[(1S)-1-[2-(1-methyl-6-oxo-pyridazin-3-yl)-1,2,4-triazol-3-yl]ethyl]-6-(trifluoromethyl)pyridine-4-carboxamide]
≥ 80%: percent control (mortality, anti-feedant effect or growth inhibition) at 200 ppm (Spodoptera littoralis) | percent effect (mortality or growth inhibition) at 200 ppm (Euschistus heros) | mortality at 200 ppm (Myzus persicae [1]) | percent control (mortality or growth inhibition) at 200 ppm (Diabrotica balteata) | percent control (mortality or growth inhibition) at 200 ppm (Plutella xylostella) | percent control (mortality, anti-feedant effect or growth inhibition) at 200 ppm (Chilo suppressalis) | mortality at 12 ppm (Myzus persicae [2])

C[C@H](NC(=O)c1cc(Cl)cc(Br)c1)c1ncnn1-c1ccc(=O)n(C)n1 [P27, 3-bromo-5-chloro-N-[(1S)-1-[2-(1-methyl-6-oxo-pyridazin-3-yl)-1,2,4-triazol-3-yl]ethyl]benzamide]
≥ 80%: percent control (mortality, anti-feedant effect or growth inhibition) at 200 ppm (Spodoptera littoralis) | percent effect (mortality or growth inhibition) at 200 ppm (Euschistus heros) | mortality at 200 ppm (Myzus persicae [1]) | percent control (mortality or growth inhibition) at 200 ppm (Diabrotica balteata) | percent control (mortality or growth inhibition) at 200 ppm (Plutella xylostella) | percent control (mortality, anti-feedant effect or growth inhibition) at 200 ppm (Chilo suppressalis) | mortality at 12 ppm (Myzus persicae [2])

CC(NC(=O)c1cc(Cl)cc(OC(F)(F)F)c1)c1nccnc1-c1ccc(=O)n(C)n1 (stereo not drawn) [P11, 3-chloro-N-[1-[3-(1-methyl-6-oxopyridazin-3-yl)pyrazin-2-yl]ethyl]-5-(trifluoromethoxy) benzamide]
≥ 80%: percent control (mortality, anti-feedant effect or growth inhibition) at 200 ppm (Spodoptera littoralis) | percent effect (mortality or growth inhibition) at 200 ppm (Euschistus heros) | mortality at 200 ppm (Myzus persicae [1]) | percent control (mortality or growth inhibition) at 200 ppm (Diabrotica balteata) | percent control (mortality or growth inhibition) at 200 ppm (Plutella xylostella) | percent control (mortality, anti-feedant effect or growth inhibition) at 200 ppm (Chilo suppressalis) | mortality at 12 ppm (Myzus persicae [2])

C[C@H](NC(=O)c1cc(C(F)(F)F)cc(C(C)(C)C#N)c1)c1ncnn1-c1ccc(=O)n(C)n1 [P43, 3-(1-cyano-1-methyl-ethyl)-N-[(1S)-1-[2-(1-methyl-6-oxo-pyridazin-3-yl)-1,2,4-triazol-3-yl]ethyl]-5-(trifluoromethyl)benzamide]
≥ 80%: percent control (mortality, anti-feedant effect or growth inhibition) at 200 ppm (Spodoptera littoralis) | percent effect (mortality or growth inhibition) at 200 ppm (Euschistus heros) | mortality at 200 ppm (Myzus persicae [1]) | percent control (mortality or growth inhibition) at 200 ppm (Diabrotica balteata) | percent control (mortality or growth inhibition) at 200 ppm (Plutella xylostella) | percent control (mortality, anti-feedant effect or growth inhibition) at 200 ppm (Chilo suppressalis) | mortality at 12 ppm (Myzus persicae [2])
